# Reference: publication PMC3468358, “Clinical, virological and biochemical evidence supporting the association of HIV-1 reverse transcriptase polymorphism R284K and thymidine analogue resistance mutations M41L, L210W and T215Y in patients failing tenofovir/emtricitabine therapy” (Retrovirology, 2012)
# Like-named read-outs stand apart in the source and are kept apart here.
# Legend:
# [1] = molecular target: T1, HIV-1 RT M41L/L210W/T215Y/R284K (Human immunodeficiency virus type 1 group M subtype B, UniProt P03366, L809W/M640L/R883K/T814Y); test: Inhibition constants under steady-state nucleotide incorporation conditions; format: biochemical
# T1 construct: His6 (C); made in house; host or cells: E. coli XL1 Blue
# Protocol: (§1) RTs were expressed in E. coli XL1 Blue and purified as p66/p51 heterodimers by ionic exchange, followed by immobilized metal affinity chromatography on Ni^2+-nitriloacetic acid-agarose. The p66 subunit was obtained with a His6 tag at its C-terminal end to facilitate its purification by metal affinity chromatography. Purity of the enzymes was assessed by SDS-polyacrylamide gel electrophoresis and RT concentrations were determined by active site titration as described.
# (§2) Nucleotide incorporation reactions under steady-state conditions were carried out as previously described. However, in the preincubation buffer, active RT and template-primers D38/25PGA or D38T/25PGA were present at concentrations of 7–20 nM and 60 nM, respectively. Elongation rates were determined with dTTP concentrations ranging from 0.05 to 20 μM or with dATP concentrations ranging from 12 nM to 10 μM, using reaction volumes of 20 μl. Catalytic constants kcat and Km were determined after fitting the elongation data to the Michaelis–Menten equation as described. Inhibition constants (Ki) for AZTTP and tenofovir-DP were determined under the conditions used for obtaining the catalytic constants of dTTP and dATP incorporation, respectively. In order to distinguish between dTTP and AZTTP, elongation reactions were carried out under conditions that allowed the incorporation of two nucleotides (i.e. T at position +1 and A at position +2). For this purpose dATP was supplied at 1 μM in all assays. The competition between tenofovir-DP and dATP was analyzed with template-primer D38T/25PGA. Assays were carried out with variable concentrations of dATP (as indicated above) and 2 μM dTTP to facilitate further extension of the primer when the inhibitor was not incorporated at position +1 of the DNA primer. Data were analyzed by using Lineweaver-Burk plots. Nucleotide incorporation reactions under pre-steady-state conditions were carried out with template-primer D38/25PGA, as described.
# [2] = molecular target: T2, HIV-1 RT M41L/L210W/T215Y (Human immunodeficiency virus type 1 group M subtype B, UniProt P03366, L809W/M640L/T814Y); test: as above; format: biochemical
# T2 construct: His6 (C); made in house; host or cells: E. coli XL1 Blue
# Protocol: as §1, §2
# WT HIV-1 RT (BH10) [3] = molecular target: T3, WT HIV-1 RT (BH10) (Human immunodeficiency virus type 1 group M subtype B, UniProt P03366); test: as above; format: biochemical
# T3 construct: His6 (C); made in house; host or cells: E. coli XL1 Blue
# Protocol: as §1, §2
# [4] = molecular target: T1, HIV-1 RT M41L/L210W/T215Y/R284K; format: biochemical; conditions: M41L/L210W/T215Y/R284K RT 210 nM, 3.2 mM ATP, terminated 26-mer primer on 38-nt DNA template 30 nM
# Protocol: (§3) The primer 25PGA was blocked at its 3´ end with d4TTP using terminal deoxynucleotidyltransferase (Roche), and excess nucleotides were eliminated by repeated passage through a mini Quick Spin column (Roche). The blocked primer was then labeled with [γ-^32P]ATP and T4 polynucleotide kinase and annealed to the DNA template D38, in order to obtain the template-primer D38/25PGA^d4T, used in the excision reactions. […] For this purpose, we preincubated the template-primer D38/^32P]25PGA (4.6 μM) with HIV-1BH10 RT (4 μM) in 65 μl of 50 mM Hepes pH 7.0 buffer, containing 15 mM NaCl, 15 mM magnesium acetate, 130 mM potassium acetate, 1 mM dithiothreitol, and 5% polyethylene glycol for 10 minutes at 37°C. Then, 35 μl of 6 mM AZTTP (diluted in the preincubation buffer) were added and incubated for another 30 minutes at 37°C to ensure that the primer was blocked completely. The RT was inactivated by heating the mixture for 10 minutes at 90°C. After slowly cooling the sample at room temperature, it was passaged several times through a mini Quick Spin column (Roche) to eliminate the free AZTTP. […] The excision of d4T monophosphate (d4TMP) from D38/25PGA^d4T was determined under single turnover conditions, as previously described.
# WT HIV-1 RT = molecular target: T4, WT HIV-1 RT (Human immunodeficiency virus type 1 group M subtype B, UniProt P03366); format: biochemical
# T4 construct: His6 (C); made in house; host or cells: E. coli XL1 Blue
# Protocol: as §3
# [5] = molecular target: T2, HIV-1 RT M41L/L210W/T215Y; format: biochemical; conditions: M41L/L210W/T215Y RT 210 nM, 3.2 mM ATP, terminated 26-mer primer on 38-nt DNA template 30 nM
# Protocol: as §3
# HIV-1 RT R284K = molecular target: T5, HIV-1 RT R284K (Human immunodeficiency virus type 1 group M subtype B, UniProt P03366, R883K); test: Kinetics of ATP-dependent excision from DNA/DNA template-primers (single turnover); format: biochemical; conditions: R284K RT 210 nM, 3.2 mM ATP, terminated 26-mer primer on 38-nt DNA template 30 nM
# T5 construct: His6 (C); made in house; host or cells: E. coli XL1 Blue
# Protocol: as §3
# [6] = test system: HIV-1 construct with RT M41L/L210W/T215Y; test: Phenotypic drug susceptibility of recombinant HIV-1 in MT-4 cells (tetrazolium-based colorimetric method); format: cell-based
# Protocol: (§4) Site-directed mutagenesis was carried out with the Quik-Change Site-Directed Mutagenesis kit (Stratagene) by following the manufacturer’s instructions, and using plasmids p66RTB [64] or p66RTB(LY) as templates. The plasmid p66RTB contains the nucleotide sequence encoding for the 66-kDa subunit of HIV-1BH10 RT, and p66RTB(LY) encodes a p66 derivative with thymidine analogue resistance mutations M41L and T215Y. […] All introduced mutations were confirmed by DNA sequencing. Recombinant HIV-1 was obtained as previously described. […] MT-4 cells were used to propagate the recombinant virus. The nucleotide sequence of the RT-coding region was fully determined in order to check for reversions or undesired mutations. MT-4 cells and the deleted HXB2-D clone were obtained from the AIDS Reagent Program (Medical Research Council).
# (§5) Viable cells at different drug concentrations were quantified with a tetrazolium-based colorimetric method. Replication kinetics of wild-type and mutant viruses were assayed by infecting peripheral blood mononuclear cells (PBMCs) (mixed from two healthy donors), previously stimulated with phytohemagglutinin and interleukin 2 [26]. In these assays, viral replication rates were obtained from the amounts of HIV-1 p24^Gag antigen produced during the exponential phase of viral growth, as described previously. Growth competition assays in MT-4 cells were carried out as previously described, in the absence and in the presence of tenofovir disoproxil fumarate at concentrations ranging from 5 to 80 nM. A multiplicity of infection of 0.001 was used and competing viruses were mixed at a 50:50 ratio. RT inhibitors were obtained from the NIH AIDS Research and Reference Reagent Program.
# [7] = test system: wild-type HXB2 virus carrying the RT sequence of BH10; test: as above; format: cell-based; conditions: average ± SD of at least three tests
# Protocol: as §4, §5
# [8] = test system: HIV-1 construct with RT R284K; test: as above; format: cell-based
# Protocol: as §4, §5
# [9] = test system: HIV-1 construct with RT M41L/L210W/T215Y/R284K; test: as above; format: cell-based
# Protocol: as §4, §5
# [10] = molecular target: T1, HIV-1 RT M41L/L210W/T215Y/R284K; test: Steady-state kinetics of nucleotide incorporation; format: biochemical; conditions: D38/25PGA for dTTP, D38T/25PGA for dATP
# Protocol: as §1, §2
# [11] = molecular target: T2, HIV-1 RT M41L/L210W/T215Y; test: Steady-state kinetics of nucleotide incorporation; format: biochemical; conditions: D38/25PGA for dTTP, D38T/25PGA for dATP
# Protocol: as §1, §2
# WT HIV-1 RT (BH10) [12] = molecular target: T3, WT HIV-1 RT (BH10); test: Steady-state kinetics of nucleotide incorporation; format: biochemical; conditions: D38/25PGA for dTTP, D38T/25PGA for dATP
# Protocol: as §1, §2
# [13] = molecular target: T1, HIV-1 RT M41L/L210W/T215Y/R284K; test: Single-nucleotide incorporation under pre-steady-state conditions; format: biochemical; conditions: D38/25PGA, 80 μM dTTP
# Protocol: as §2, with “Nucleotide incorporation reactions under pre-steady-state conditions were carried out with template-primer D38/25PGA, as described.” left out
# [14] = molecular target: T2, HIV-1 RT M41L/L210W/T215Y; test: as above; format: biochemical; conditions: D38/25PGA, 80 μM dTTP
# Protocol: as §2, with “Nucleotide incorporation reactions under pre-steady-state conditions were carried out with template-primer D38/25PGA, as described.” left out
# [15] = Human immunodeficiency virus 1, MT4, average ± SD of at least three tests
# [16] = Human immunodeficiency virus 1, HXB2, MT4, WT virus
smiles,measurement,setting,value
"CC(Cn1cnc2c(N)ncnc21)OCP(=O)(O)OP(=O)(O)OP(=O)(O)O (stereo in doubt) [Tenofovir-DP, tenofovir diphosphate]",Ki,"[1]; M41L/L210W/T215Y/R284K RT, competition with dATP, template-primer D38T/25PGA, read-out: Ki(Tenofovir-DP)",2540 ± 550 nM
same,Ki,"[2]; M41L/L210W/T215Y RT, competition with dATP, template-primer D38T/25PGA, read-out: Ki(Tenofovir-DP)",2630 ± 640 nM
same,Ki,"WT HIV-1 RT (BH10) [3]; competition with dATP, template-primer D38T/25PGA, read-out: Ki(Tenofovir-DP)",3590 ± 260 nM
Cc1cn([C@H]2C[C@H](N=[N+]=[N-])[C@@H](COP(=O)(O)O)O2)c(=O)[nH]c1=O [AZTMP],kobs of ATP-dependent excision reaction,[4],0.0364 ± 0.00308 min⁻¹
same,kobs of ATP-dependent excision reaction,"WT HIV-1 RT; WT RT 210 nM, 3.2 mM ATP, terminated 26-mer primer on 38-nt DNA template 30 nM",0.00282 ± 0.000148 min⁻¹
same,kobs of ATP-dependent excision reaction,[5],0.0469 ± 0.00169 min⁻¹
same,kobs of ATP-dependent excision reaction,HIV-1 RT R284K,0.00242 ± 0.000122 min⁻¹
Cc1cn([C@H]2C[C@H](N=[N+]=[N-])[C@@H](CO[P@](=O)(O)O[P@](=O)(O)OP(=O)(O)O)O2)c(=O)[nH]c1=O [AZTTP],Ki,[1],2320 ± 740 nM
same,Ki,[2],2180 ± 170 nM
same,Ki,"WT HIV-1 RT (BH10) [3]; competition with dTTP, template-primer D38/25PGA, read-out: Ki(AZTTP)",2100 ± 380 nM
Nc1nc(=O)n([C@@H]2CS[C@H](CO)O2)cc1F [Emtricitabine],fold increase in IC50 relative to the wild-type HXB2 virus control,[6],1.6
same,IC50,[6]; [15],227 ± 113 nM
same,IC50,[7]; [16],144 ± 69.9 nM
same,fold increase in IC50 relative to the wild-type HXB2 virus control,[8],0.7
same,IC50,[8]; [15],104 ± 81.5 nM
same,fold increase in IC50 relative to the wild-type HXB2 virus control,[9],2.0
same,IC50,[9]; [15],295 ± 93.7 nM
"CC(C)OC(=O)OCOP(=O)(CO[C@H](C)Cn1cnc2c(N)ncnc21)OCOC(=O)OC(C)C.O=C(O)/C=C/C(=O)O [Tenofovir, tenofovir disoproxil fumarate]",fold increase in IC50 relative to the wild-type HXB2 virus control,[6],1.6
same,IC50,"[6]; M41L/L210W/T215Y virus, average ± SD of at least three tests",11 ± 4.6 nM
same,IC50,[7]; WT virus,6.7 ± 2.2 nM
same,fold increase in IC50 relative to the wild-type HXB2 virus control,[8],1.8
same,IC50,"[8]; R284K virus, average ± SD of at least three tests",12.1 ± 5.3 nM
same,fold increase in IC50 relative to the wild-type HXB2 virus control,[9],2.7
same,IC50,"[9]; M41L/L210W/T215Y/R284K virus, average ± SD of at least three tests",18.1 ± 4.4 nM
"Cc1cn([C@H]2C=C[C@@H](CO)O2)c(=O)[nH]c1=O [d4T, 2´,3´-didehydro-2´,3´-dideoxythymidine]",fold increase in IC50 relative to the wild-type HXB2 virus control,[6],0.8
same,IC50,[6]; [15],217 ± 75.5 nM
same,IC50,[7]; [16],276 ± 90.5 nM
same,fold increase in IC50 relative to the wild-type HXB2 virus control,[8],0.5
same,IC50,[8]; [15],130 ± 24.8 nM
same,fold increase in IC50 relative to the wild-type HXB2 virus control,[9],1.0
same,IC50,[9]; [15],287 ± 84.5 nM
"Cc1cn([C@H]2C=C[C@@H](COP(=O)(O)O)O2)c(=O)[nH]c1=O [d4TMP, d4T monophosphate]",kobs of ATP-dependent excision reaction,[4],0.037 ± 0.00229 min⁻¹
same,kobs of ATP-dependent excision reaction,WT HIV-1 RT,0.00337 ± 0.000193 min⁻¹
same,kobs of ATP-dependent excision reaction,[5],0.0372 ± 0.00158 min⁻¹
same,kobs of ATP-dependent excision reaction,HIV-1 RT R284K,0.00262 ± 0.000142 min⁻¹
Nc1ncnc2c1ncn2[C@H]1C[C@H](O)[C@@H](COP(=O)(O)OP(=O)(O)OP(=O)(O)O)O1 [dATP],Km,[10],0.0159 ± 0.0025 µM
same,kcat,[10],0.1682 ± 0.0245 s⁻¹
same,Km,[11],0.0321 ± 0.0096 µM
same,kcat,[11],0.095 ± 0.0145 s⁻¹
same,Km,WT HIV-1 RT (BH10) [12],0.0258 ± 0.0067 µM
same,kcat,WT HIV-1 RT (BH10) [12],0.0645 ± 0.0165 s⁻¹
Cc1cn([C@H]2C[C@H](O)[C@@H](COP(=O)(O)OP(=O)(O)OP(=O)(O)O)O2)c(=O)[nH]c1=O [dTTP],Km,[10],0.184 ± 0.0061 µM
same,kcat,[10],0.0943 ± 0.00383 s⁻¹
same,Km,[11],0.117 ± 0.0219 µM
same,kcat,[11],0.0588 ± 0.0015 s⁻¹
same,Km,WT HIV-1 RT (BH10) [12],0.108 ± 0.0129 µM
same,kcat,WT HIV-1 RT (BH10) [12],0.0523 ± 0.00917 s⁻¹
same,nucleotide incorporation rate (kobs),[13],38.8 ± 9.4 s⁻¹
same,nucleotide incorporation rate (kobs),[14],21.5 ± 4.4 s⁻¹
